Experiments:
[1] = target: T1, CYP2C8 (Homo sapiens, UniProt P10632); experiment: biochemical; settings: for IC50: IC50 (μM) of honokiol, Amodiaquine N-deethylation
T1 sequence (P10632 1-490): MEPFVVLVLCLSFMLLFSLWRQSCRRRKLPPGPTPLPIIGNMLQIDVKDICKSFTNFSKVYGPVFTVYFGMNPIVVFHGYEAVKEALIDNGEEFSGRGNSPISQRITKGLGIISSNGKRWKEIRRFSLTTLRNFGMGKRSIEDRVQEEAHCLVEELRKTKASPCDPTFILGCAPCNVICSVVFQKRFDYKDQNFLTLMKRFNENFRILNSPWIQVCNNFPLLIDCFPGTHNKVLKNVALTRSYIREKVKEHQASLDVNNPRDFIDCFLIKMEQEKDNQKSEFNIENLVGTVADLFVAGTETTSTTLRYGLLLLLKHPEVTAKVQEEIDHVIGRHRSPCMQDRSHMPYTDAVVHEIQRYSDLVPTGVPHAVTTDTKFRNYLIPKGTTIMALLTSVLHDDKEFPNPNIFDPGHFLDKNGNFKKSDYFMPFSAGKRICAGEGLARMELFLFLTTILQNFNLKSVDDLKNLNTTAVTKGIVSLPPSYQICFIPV
Procedure: (§1) The inhibitory potential (IC50 values) of honokiol on CYP activities was evaluated in pooled human liver microsomes using liquid chromatography-tandem mass spectrometry (LC-MS/MS). […] Honokiol was dissolved in acetonitrile. […] After a 3 min preincubation at 37 °C, the reactions were initiated by addition of an NADP generating system and incubated for 15 min at 37 °C in a shaking water bath. The reaction was then stopped by placement of the tubes on ice and adding 100 μL of ice-cold methanol containing internal standards (^13C2, ^15N-acetaminophen for acetaminophen and N-deethylamodiaquine, and d9-1-hydroxybufuralol for 4-hydroxydiclofenac, 4-hydroxybupropion, 7-hydroxycoumarin, 4-hydroxymephenytoin, 1'-hydroxybufuralol, and 1'-hydroxymidazolam). The incubation mixtures were then centrifuged at 13,000 × g for 4 min. All incubations were performed in triplicate, and average values were used.
(§2) The reaction was initiated by the addition of the cocktail containing seven CYP probe substrates and bupropion.
(§3) The metabolites formed from the seven CYP cocktail substrates were simultaneously determined according to our previously described LC-MS/MS method with minor modification; the concentration of 4-hydroxybupropion for CYP2B6 activity was quantified separately by LC-MS/MS. A tandem mass spectrometer (TSQ Quantum Access, Thermo Scientific, San Jose, CA, USA) coupled with a Nanospace SI-2 LC system (Tokyo, Japan) was used. The column and autosampler temperatures were 50 °C and 6 °C, respectively. The mass spectrometer was equipped with an electrospray ionization (ESI) source and operated in positive ion mode. The ESI source settings for ionization of the metabolites were as follows: capillary voltage, 4200 V; vaporizer temperature, 350 °C; capillary temperature 330 °C; sheath gas pressure, 35 psi; auxiliary gas pressure, 15 psi. Quantification was performed by selected reaction monitoring (SRM) of [M+H]^+ ions and the related product ions for each metabolite. […] Analytical data were processed using Xcalibur® software (Thermo Scientific).
(§4) The incubation mixtures were centrifuged at 13,000 × g for 4 min, and the supernatants were diluted as follows: dilution of 20 μL supernatant with 180 μL of 25% methanol for CYP2C8; dilution of 50 μL supernatant with 50 μL of water for CYP2C9, CYP2C19, CYP2D6, and CYP1A2; and dilution of 20 μL supernatant with 80 μL of water for CYP2B6. Aliquots (5 μL) of the diluted supernatants were then analyzed by LC-MS/MS.
(§5) The apparent kinetic parameters for inhibitory potential (Ki values) were estimated from the fitted curves using Enzyme Kinetics Ver. 1.1 software (Systat Software Inc.).

[2] = target: T2, CYP2B6 (Homo sapiens, UniProt P20813); experiment: biochemical; settings: for IC50: IC50 (μM) of honokiol, Bupropion hydroxylation
T2 sequence (P20813 1-491): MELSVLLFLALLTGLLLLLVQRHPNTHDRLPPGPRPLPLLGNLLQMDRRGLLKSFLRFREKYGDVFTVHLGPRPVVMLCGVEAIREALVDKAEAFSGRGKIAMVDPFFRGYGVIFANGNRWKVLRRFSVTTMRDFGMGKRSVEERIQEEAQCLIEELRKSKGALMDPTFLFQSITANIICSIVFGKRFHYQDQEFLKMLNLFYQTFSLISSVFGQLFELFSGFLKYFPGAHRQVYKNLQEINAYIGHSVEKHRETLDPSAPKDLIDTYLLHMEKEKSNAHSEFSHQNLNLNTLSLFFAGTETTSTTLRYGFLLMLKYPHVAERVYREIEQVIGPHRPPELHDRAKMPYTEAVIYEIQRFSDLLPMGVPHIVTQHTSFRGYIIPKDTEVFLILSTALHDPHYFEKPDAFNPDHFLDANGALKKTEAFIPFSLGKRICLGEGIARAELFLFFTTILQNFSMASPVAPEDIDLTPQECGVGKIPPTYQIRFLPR
Procedure: as §1, §2, §3, §4, §5

[3] = with preincubation, 30 min preincubation with NADPH

C=CCc1ccc(O)c(-c2ccc(O)c(CC=C)c2)c1 [honokiol, 2-(4-hydroxy-3-prop-2-enyl-phenyl)-4-prop-2-enyl-phenol]
Ki [1]: 4.9 µM
IC50 ([1]; no preincubation, 2.5 μM amodiaquine, pooled HLM (H161)): 8.9 µM
IC50 [1, 3]: 15.5 µM
Ki [2]: 17.5 µM
IC50 ([2]; no preincubation, 50 μM bupropion, pooled HLM (H161)): 13.8 µM
IC50 [2, 3]: 20.8 µM
